These results are taken from US12186337B2 (priority 2009, dated 2025).

The conditions of this data set: pH 10.

SMILES strings stand for the structures.

As to `O=NO` [sodium nitrite], the “pH of 10% solution at 25° C.” value amounted to 7.9.
